From patent publication US20240254083A1, “HETEROCYCLIC TRPML1 AGONISTS AND USES THEREOF” (Libra Therapeutics, Inc., priority 2021, published 2024)

Legend:
[1] = system: autophagy reporter Rosella stably expressed in HeK293 cell line; experiment: Autophagy assay (Rosella-LC3 reporter, imaging); format: cell-based; conditions: Homo sapiens; HeK293 cells with Rosella reporter (LC3 tag), 18 hours incubation, reference Torin-1; read-out: Autophagy pEC50 (converted)
Experimental: • Tyrode's buffer with 2 mM Ca^2+ in-house solution (130 mM NaCl, 5 mM KCl, 2 mM CaCl2), 1 mM MgCl2, 5 mM NaHCO3, 20 mM HEPES in water at pH 7.4; sterile filtered) • DMSO (Sigma) • Bis-benzimide H 33342 trihydrochloride (Hoechst 33342; Sigma-Aldrich) • Reference molecule (agonist): Torin-1, (#4247, Tocris) stock 1.2 mM in DMSO, stored at −20° C. Reporter of Autophagy and Cell line
Reporter Rosella: a fluorescent-based chimera constitutes by two fluorescent proteins, Green and Red variants, acting as a bimodal indicator of pH. The green fluorescent variant of the constructs is pH sensitive (pKa=6.9) while the red variant is not pH sensitive and it is used as reference. The reporter is fused to sequence for autophagosome localization (LC3 tag).
The reporter Rosella have been stably expressed in HeK293 cell line and used as read-out.
Experiments have been performed in 384 MTP poly-lysine coated well format. Cells have been seeded in 384-w at a density of 6000 cells/well in 25 μl/well complete growth medium without antibiotics. Twenty-four hours later, cells have been treated with compounds and incubated for further 18 hours. Then the cells have been imaged and assayed for the response to various compounds using the reporter for autophagy expressed in the cells as readout.
The experiments were performed in a 384-well format according to the following procedure: • 24 h after seeding, cells were incubated with compounds at the desired concentration, and with the reference molecule (agonist) Torin-1 at a top concentration of 1 μM (max signal), for 18 hours at 37° C. and 5% CO2. The final percentage of DMSO was 0.3% in all the conditions. • Then the culture medium was carefully removed to avoid cells detachment and to discard red phenol into the medium and that can interfere with the measurements. • Staining of the nuclei was obtained by incubating the cells with 8 μM/well of Hoechst 3342 in standard Tyrode's buffer for 20 min at RT • Then the cells were carefully washed two times with standard Tyrode's buffer • Finally, the samples were acquired by recording three fluorescence emission channels (green, red and blue) at 20× magnification and with at least 3-4 fields of view per well in an Operetta CLS microscope (PerkinElmer). • Image analysis was performed by using Harmony software (PerkinElmer). The image analysis involved the following steps: flat-field illumination correction, nuclei segmentation, cell segmentations and identification of vesicles/granules within the cytosol compartments and representing the autophagy vesicles. Measurements of signal intensity ratio (Green to Red) and number of autophagy vesicles per cells were used to obtain information on the effects of compounds on the autophagy flux. • Data from image analysis measurements were finally loaded and analyzed for normalization and fitting procedures in Genedata Screener© software.

hTRPML1 = biological target: T1, hTRPML1 (Homo sapiens, UniProt Q9GZU1); experiment: Cellular TRPML1 assay (FLIPR, GCaMP6f calcium read-out); format: cell-based; conditions: HEK T-REx/GCaMP6f/TRPML1 cells, FLIPR TETRA, kinetic response over 300 seconds; read-out: hTRPML1 FLIPR pEC50 (converted)
T1 construct: expressed in transfected cells
Experimental: Buffers and reagents • PBS (D-PBS without calcium and magnesium; EuroClone) • Trypsin (Trypsin 0.05%, EDTA 0.02% in PBS; EuroClone) • DMSO (Sigma) • Ca^2+ free Tyrode's buffer: in-house solution (130 mM NaCl, 5 mM KCl, 1 mM MgCl2, 5 mM NaHCO3, 20 mM HEPES in water at pH 7.4; sterile filtered). • Opti-MEM (Gibco) • Agonist: ML-SA1 (Sigma); stock: 60 mM in DMSO, stored at −20° C. • Blocker: ML-SI3 (in house synthesis); stock: 20 mM in DMSO, stored at −20° C.
Cell line • The final clone for the TRPML1 assay is HEK T-REx/GCaMP6f/TRPML1. • GCaMP6f is a genetically encoded calcium indicator that is stably expressed in this cell line and used as a fluorescent read-out.
Cells are seeded at 15000 cells/well either in 25 µl/well of growth medium or in 20 μl/well of Optimem+0.5% FBS without selection antibiotics. Twenty-four hours later, cells are assayed for the response to various compounds using the Ca^2+ sensitive GCaMP6f protein stably expressed in the cells as readout.
The experiment is performed in a 384-well format according to the following procedures for either Ca^2+ free or Optimem conditions: • Ca^2+ free condition (in absence of extracellular Ca^2+): • 24 h after seeding, pre-incubate the cells at room temperature for about 10′. • Then remove the culture medium and replace it with 20 μL of Ca^2+ free Tyrode's buffer. • Start the experiment at the FLIPR^TETRA by injecting 10 μL/w of 3× concentrated test compounds and controls in Ca^2+ free Tyrode's buffer. Monitor the kinetic response over a period of 300 seconds. • Final DMSO concentration: 0.5% • Optimem condition (in presence of extracellular Ca^2+): • 24 h after seeding, pre-incubate the cells at room temperature for about 10′. • Start the experiment at the FLIPR^TETRA by injecting 10 μL/w of 3× concentrated test compounds and controls in Ca^2+ free Tyrode's buffer. Monitor the kinetic response over a period of 300 seconds. • Final DMSO concentration: 0.5%
Data from FLIPR^TETRA measurements are analyzed with the Genedata Screener© software.

T1 sequence (Q9GZU1 whole entry): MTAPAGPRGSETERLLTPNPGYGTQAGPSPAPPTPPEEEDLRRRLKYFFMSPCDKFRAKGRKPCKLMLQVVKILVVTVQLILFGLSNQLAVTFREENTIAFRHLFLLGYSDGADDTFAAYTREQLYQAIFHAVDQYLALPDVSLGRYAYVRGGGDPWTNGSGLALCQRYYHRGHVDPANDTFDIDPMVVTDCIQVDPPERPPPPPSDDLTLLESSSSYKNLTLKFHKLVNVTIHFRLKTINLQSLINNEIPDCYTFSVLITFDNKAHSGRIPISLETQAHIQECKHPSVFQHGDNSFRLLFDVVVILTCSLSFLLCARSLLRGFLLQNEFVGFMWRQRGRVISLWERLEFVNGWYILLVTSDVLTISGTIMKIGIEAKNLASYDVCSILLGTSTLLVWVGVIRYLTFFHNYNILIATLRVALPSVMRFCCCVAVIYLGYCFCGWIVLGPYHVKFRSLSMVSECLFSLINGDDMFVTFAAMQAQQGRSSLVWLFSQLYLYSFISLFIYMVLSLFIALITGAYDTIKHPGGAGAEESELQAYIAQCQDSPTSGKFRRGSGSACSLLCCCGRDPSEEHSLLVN

SMILES	EC50 [1] [µM]	EC50 (hTRPML1) [µM]
CN(C)S(=O)(=O)c1ccc(S(=O)(=O)Nc2ccccc2N2CCCC(OCc3ccccc3)C2)cc1 (racemic) [Example 25, N^1-(2-(3-(benzyloxy)piperidin-1-yl)phenyl)-N^4,N^4-dimethylbenzene-1,4-disulfonamide]	1 to 3.16	1 to 3.16
CN(C)S(=O)(=O)c1ccc(S(=O)(=O)Nc2ccccc2N2CCCC(Oc3ccccc3)C2)cc1 (racemic) [Example 28, N^1,N^1-dimethyl-N^4-(2-(3-phenoxypiperidin-1-yl)phenyl)benzene-1,4-disulfonamide]	< 1	1 to 3.16
CN(C)S(=O)(=O)c1ccc(S(=O)(=O)Nc2ccccc2N2CCCC(COc3ccccc3)C2)cc1 (racemic) [Example 34, N^1,N^1-dimethyl-N^4-(2-(3-(phenoxymethyl)piperidin-1-yl)phenyl)benzene-1,4-disulfonamide]	1 to 3.16	1 to 3.16
CN(C)S(=O)(=O)c1ccc(C(=O)N(c2ccccc2N2CCC(Oc3ccccc3)CC2)C2CCCC2)cc1 [Example 1, N-cyclopentyl-4-(N,N-dimethylsulfamoyl)-N-(2-(4-phenoxypiperidin-1-yl)phenyl)benzamide]	< 1	1 to 3.16
CN(C)S(=O)(=O)c1ccc(C(=O)N(c2ccccc2N2CCC(Oc3ccccc3)CC2)C2CCC2)cc1 [Example 2, N-cyclobutyl-4-(N,N-dimethylsulfamoyl)-N-(2-(4-phenoxypiperidin-1-yl)phenyl)benzamide]	< 1	1 to 3.16
CCS(=O)(=O)c1ccc(S(=O)(=O)Nc2ccccc2N2CCC(Oc3ccccc3)CC2)cc1 [Example 6, 4-(ethylsulfonyl)-N-(2-(4-phenoxypiperidin-1-yl)phenyl)benzenesulfonamide]	> 3.16	> 3.16
CN(C)S(=O)(=O)c1ccc(S(=O)(=O)Nc2cccc(F)c2N2CCC(Oc3ccccn3)CC2)cc1 [Example 8, N^1-(3-fluoro-2-(4-(pyridin-2-yloxy)piperidin-1-yl)phenyl)-N^4,N^4-dimethylbenzene-1,4-disulfonamide]	< 1	< 1
O=S(=O)(Nc1cccc(F)c1N1CCC(Oc2ccccn2)CC1)c1ccc(C(F)(F)F)cc1 [Example 10, N-(3-fluoro-2-(4-(pyridin-2-yloxy)piperidin-1-yl)phenyl)-4-(trifluoromethyl)benzenesulfonamide]	1 to 3.16	1 to 3.16
CC(C)(C)OC(=O)N1CCN(c2ccccc2NS(=O)(=O)c2ccc(C(F)(F)F)cc2)CC1 [Example 17, tert-butyl 4-(2-((4-(trifluoromethyl)phenyl)sulfonamido)phenyl) piperazine-1-carboxylate]	< 1	1 to 3.16
Cc1ccc(S(=O)(=O)Nc2ccccc2N2CCN(C(=O)OC(C)(C)C)CC2)cc1F [Example 19, tert-butyl 4-(2-((3-fluoro-4-methylphenyl)sulfonamido)phenyl)piperazine-1-carboxylate]	> 3.16	1 to 3.16
Cc1ccc(S(=O)(=O)Nc2c(C)cccc2N2CCN(C(=O)OC(C)(C)C)CC2)cc1 [Example 22, tert-butyl 4-(3-methyl-2-((4-methylphenyl)sulfonamido)phenyl)piperazine-1-carboxylate]	> 3.16	1 to 3.16
CC(C)(C)OC(=O)N1CCN(c2ccccc2NS(=O)(=O)c2ccc(C3CC3)cc2)CC1 [Example 23, tert-butyl 4-(2-((4-cyclopropylphenyl)sulfonamido)phenyl) piperazine-1-carboxylate]	> 3.16	1 to 3.16
CN(C)S(=O)(=O)c1ccc(S(=O)(=O)Nc2ccccc2N2CCOC(C3CC3)C2)cc1 (stereo not shown) [Example 31, N^1-(2-(2-cyclopropylmorpholino)phenyl)-N^4, N^4-dimethylbenzene-1,4-disulfonamide]	> 3.16	> 3.16
CN(C)S(=O)(=O)c1ccc(S(=O)(=O)Nc2ccccc2N2CCOC(C3CCC3)C2)cc1 (stereo not shown) [Example 32, N^1-(2-(2-cyclobutylmorpholino)phenyl)-N^4,N^4-dimethylbenzene-1,4-disulfonamide]	1 to 3.16	> 3.16
C#CCC1CN(c2ccccc2NS(=O)(=O)c2ccc(S(=O)(=O)N(C)C)cc2)CCO1 (stereo not shown) [Example 33, N^1,N^1-dimethyl-N^4-(2-(2-(prop-2-yn-1-yl)morpholino)phenyl)benzene-1,4-disulfonamide]	< 1	> 3.16
CN(C)S(=O)(=O)c1ccc(S(=O)(=O)Nc2ccccc2N2CCC(C)(c3ccccc3)CC2)cc1 [Example 38, N^1,N^1-dimethyl-N^4-(2-(4-methyl-4-phenylpiperidin-1-yl)phenyl)benzene-1,4-disulfonamide]	< 1	1 to 3.16
CN(C)S(=O)(=O)c1ccc(S(=O)(=O)Nc2ccccc2N2CCC(C)(Oc3ccccn3)CC2)cc1 [Example 40, N^1,N^1-dimethyl-N^4-(2-(4-methyl-4-(pyridin-2-yloxy)piperidin-1-yl)phenyl)benzene-1,4-disulfonamide]	< 1	> 3.16
